According to patent publication US10722514B2 (FLX Bio, Inc., priority 2017, dated 2020):

Biological target: T1, recombinant full-length USP7 (Homo sapiens, UniProt Q93009)
T1 construct: A 25 μl reaction volume containing recombinant full-length USP7 (62 pM)
Assay: USP7-mediated ubiquitin-rhodamine cleavage assay
Type: biochemical
Conditions: recombinant full-length USP7 62 pM; ubiquitin-rhodamine 100 nM; 30-minute incubation with compound, 1 hour reaction at room temperature; read-out: Potency: USP7 IC50
In short: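 USP7 (62 pM) in 20 mM HEPES pH 7.3, 150 mM NaCl, 1 mM TCEP, 125 μg/ml BSA was preincubated with compound (1% DMSO) for 30 min at room temperature. Ubiquitin-rhodamine (100 nM final) was then added for 1 hour, the reaction stopped with acetic acid, and fluorescence read; IC50 from 4-parameter fit.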

T1 sequence (Q93009 whole entry): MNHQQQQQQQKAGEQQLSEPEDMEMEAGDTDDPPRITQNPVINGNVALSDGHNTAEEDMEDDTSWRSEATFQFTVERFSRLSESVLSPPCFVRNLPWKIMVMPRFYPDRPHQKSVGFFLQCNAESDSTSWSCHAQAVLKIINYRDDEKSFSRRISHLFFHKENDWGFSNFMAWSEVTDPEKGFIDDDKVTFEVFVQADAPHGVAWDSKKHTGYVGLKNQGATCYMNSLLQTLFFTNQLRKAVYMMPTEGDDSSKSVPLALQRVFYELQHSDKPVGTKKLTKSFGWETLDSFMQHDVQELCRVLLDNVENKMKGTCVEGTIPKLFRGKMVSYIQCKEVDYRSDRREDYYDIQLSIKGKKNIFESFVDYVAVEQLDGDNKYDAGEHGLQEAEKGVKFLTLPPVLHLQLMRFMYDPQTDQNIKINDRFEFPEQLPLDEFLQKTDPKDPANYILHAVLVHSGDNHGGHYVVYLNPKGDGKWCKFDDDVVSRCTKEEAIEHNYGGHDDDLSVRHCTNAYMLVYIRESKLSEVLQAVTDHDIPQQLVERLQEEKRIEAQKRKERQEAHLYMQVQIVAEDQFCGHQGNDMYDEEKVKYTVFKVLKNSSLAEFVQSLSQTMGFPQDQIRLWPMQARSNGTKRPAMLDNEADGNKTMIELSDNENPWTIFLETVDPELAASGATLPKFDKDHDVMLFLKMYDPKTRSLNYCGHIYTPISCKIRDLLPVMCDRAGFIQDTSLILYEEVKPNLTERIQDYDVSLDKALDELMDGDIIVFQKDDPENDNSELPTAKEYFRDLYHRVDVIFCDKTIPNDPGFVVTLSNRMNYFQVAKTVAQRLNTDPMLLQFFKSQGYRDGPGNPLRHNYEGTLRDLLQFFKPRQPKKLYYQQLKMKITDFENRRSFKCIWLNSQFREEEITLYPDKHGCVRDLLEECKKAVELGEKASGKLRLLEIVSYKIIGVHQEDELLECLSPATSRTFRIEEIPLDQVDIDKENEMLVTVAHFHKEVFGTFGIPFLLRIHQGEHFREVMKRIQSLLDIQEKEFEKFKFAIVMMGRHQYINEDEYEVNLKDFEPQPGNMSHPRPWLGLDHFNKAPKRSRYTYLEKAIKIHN

Row | Structure (SMILES) | IC50 [µM]
1 | Cc1cc(Cl)cc(-c2ccnc3cc(CN4C(=O)CCN(C)C4=O)sc23)c1O[C@H]1CCCNC1 [Example 162, (S)-3-((7-(5-Chloro-3-methyl-2-(piperidin-3-yloxy)phenyl)thieno[3,2-b]pyridin-2-yl)methyl)-1-methyldihydropyrimidine-2,4(1H,3H)-dione] | < 1
2 | Cc1cc(Cl)cc(-c2ccnc3c(F)c(CN4C(=O)CCC4=O)sc23)c1O[C@H]1CCCNC1 [Example 163, (S)-1-((7-(5-Chloro-3-methyl-2-(piperidin-3-yloxy)phenyl)-3-fluorothieno[3,2-b]pyridin-2-yl)methyl)pyrrolidine-2,5-dione] | < 1
3 | CCC(O)c1cc2nccc(-c3cc(Cl)cc(C)c3O[C@H]3CCCNC3)c2s1 (stereo partly drawn) [Example 164, 1-(7-(5-Chloro-3-methyl-2-(((S)-piperidin-3-yl)oxy)phenyl)thieno[3,2-b]pyridin-2-yl)propan-1-ol] | 1 to 10
4 | Cc1cc(Cl)cc(-c2ccnc3cc(CO)sc23)c1OC1CC2CNC1C2 (stereo not shown) [Example 165, (7-(2-((2-Azabicyclo[2.2.1]heptan-6-yl)oxy)-5-chloro-3-methylphenyl)thieno[3,2-b]pyridin-2-yl)methanol] | 1 to 10
5 | OCc1cc2nccc(-c3cc(Cl)cc(Br)c3O[C@H]3CCCNC3)c2s1 [Example 166, (S)-(7-(3-Bromo-5-chloro-2-(piperidin-3-yloxy)phenyl)thieno[3,2-b]pyridin-2-yl)methanol] | 1 to 10
6 | Cc1cc(Cl)cc(-c2ccnc3ccsc23)c1O[C@H]1CCCNC1 [Example 167, (S)-7-(5-Chloro-3-methyl-2-(piperidin-3-yloxy)phenyl)thieno[3,2-b]pyridine] | 10 to 30
7 | Cc1cc(Cl)cc(-c2ccnc3cc(CO)sc23)c1OC[C@@H]1CNCCN1 [Example 168, (S)-(7-(5-Chloro-3-methyl-2-(piperazin-2-ylmethoxy)phenyl)thieno[3,2-b]pyridin-2-yl)methanol] | 10 to 30
8 | OCc1cc2nccc(-c3cc(F)cc(Br)c3O[C@H]3CCCNC3)c2s1 [Example 169, (S)-(7-(3-Bromo-5-fluoro-2-(piperidin-3-yloxy)phenyl)thieno[3,2-b]pyridin-2-yl)methanol] | 10 to 30
9 | Cc1cc(Cl)cc(-c2ncnc3cc(Cn4c(=O)ccn(CC(F)(F)F)c4=O)sc23)c1O[C@@H]1CCNC[C@@H]1F [Example 170, 3-((4-(5-Chloro-2-(((3S,4R)-3-fluoropiperidin-4-yl)oxy)-3-methylphenyl)thieno[3,2-d]pyrimidin-6-yl)methyl)-1-(2,2,2-trifluoroethyl)pyrimidine-2,4(1H,3H)-dione] | < 1
10 | Cc1cc(Cl)cc(-c2ccnc3ccsc23)c1OC1CC2CNC1C2 (stereo not shown) [Example 171, 7-(2-((2-Azabicyclo[2.2.1]heptan-6-yl)oxy)-5-chloro-3-methylphenyl)thieno[3,2-b]pyridine] | 10 to 30
11 | CCC(O)c1cc2nccc(-c3cccc(C)c3OC3CCNCC3)c2s1 (stereo not shown) [Example 172, 1-(7-(3-Methyl-2-(piperidin-4-yloxy)phenyl)thieno[3,2-b]pyridin-2-yl)propan-1-ol] | 10 to 30
12 | Cc1cc(Cl)cc(-c2ccnc3cc(Cn4c(=O)ccn(CC(F)(F)F)c4=O)sc23)c1O[C@@H]1CCNC[C@@H]1C [Example 173, 3-((7-(5-Chloro-3-methyl-2-(((3S,4R)-3-methylpiperidin-4-yl)oxy)phenyl)thieno[3,2-b]pyridin-2-yl)methyl)-1-(2,2,2-trifluoroethyl)pyrimidine-2,4(1H,3H)-dione] | < 1
13 | CCC(O)c1cc2ncnc(-c3cc(Cl)cc(C)c3O[C@H]3CCCNC3)c2s1 (stereo partly drawn) [Example 174, 1-(4-(5-Chloro-3-methyl-2-(((S)-piperidin-3-yl)oxy)phenyl)thieno[3,2-d]pyrimidin-6-yl)propan-1-ol] | 1 to 10
14 | Cc1cc(Cl)cc(-c2ccnc3cc(CO)sc23)c1OC1CCNCC1 [Example 175, (7-(5-Chloro-3-methyl-2-(piperidin-4-yloxy)phenyl)thieno[3,2-b]pyridin-2-yl)methanol] | 1 to 10
15 | CCN1CCC(Oc2c(C)cc(Cl)cc2-c2ccnc3cc(CN4C(=O)CCC4=O)sc23)CC1 [Example 176, 1-((7-(5-Chloro-2-((1-ethylpiperidin-4-yl)oxy)-3-methylphenyl)thieno[3,2-b]pyridin-2-yl)methyl)pyrrolidine-2,5-dione] | < 1
16 | Cc1cc(Cl)cc(-c2ncnc3cc(CN4C(=O)CCC4=O)sc23)c1OC1CCNCC1 [Example 177, 1-((4-(5-Chloro-3-methyl-2-(piperidin-4-yloxy)phenyl)thieno[3,2-d]pyrimidin-6-yl)methyl)pyrrolidine-2,5-dione] | < 1
17 | CN[C@H]1CC[C@H](Oc2c(C)cc(Cl)cc2-c2ccnc3cc(CO)sc23)CC1 [Example 179, (7-(5-Chloro-3-methyl-2-(((1r,4r)-4-(methylamino)cyclohexyl)oxy)phenyl)thieno[3,2-b]pyridin-2-yl)methanol] | 10 to 30

Row | Structure (SMILES) | IC50 [µM]
18 | Cc1cc(Cl)cc(-c2ccnc3ccsc23)c1OC1CCNCC1 [Example 180, 7-(5-Chloro-3-methyl-2-(piperidin-4-yloxy)phenyl)thieno[3,2-b]pyridine] | 10 to 30
19 | CCC(O)c1cc2ncnc(-c3cc(Cl)cc(C)c3OC3CCNCC3)c2s1 (stereo not shown) [Example 181, 1-(4-(5-Chloro-3-methyl-2-(piperidin-4-yloxy)phenyl)thieno[3,2-d]pyrimidin-6-yl)propan-1-ol] | 1 to 10
20 | Cc1cc2nccc(-c3cc(C#N)cc(C)c3O[C@H]3CCCNC3)c2s1 [Example 182, (S)-3-Methyl-5-(2-methylthieno[3,2-b]pyridin-7-yl)-4-(piperidin-3-yloxy)benzonitrile] | 10 to 30
21 | Cc1cc(C#N)cc(-c2ncnc3cc(CO)sc23)c1O[C@H]1CCCNC1 [Example 183, (S)-3-(6-(Hydroxymethyl)thieno[3,2-d]pyrimidin-4-yl)-5-methyl-4-(piperidin-3-yloxy)benzonitrile] | 1 to 10
22 | Cc1cc(Cl)cc(-c2ccnc3cc(Cn4c(=O)cc[nH]c4=O)sc23)c1OC1CCNCC1 [Example 184, 3-((7-(5-Chloro-3-methyl-2-(piperidin-4-yloxy)phenyl)thieno[3,2-b]pyridin-2-yl)methyl)pyrimidine-2,4(1H,3H)-dione] | < 1
23 | Cc1cc(Cl)cc(-c2ccnc3cc(CN4C(=O)NC(C)(C)C4=O)sc23)c1OC1CCNCC1 [Example 185, 3-((7-(5-Chloro-3-methyl-2-(piperidin-4-yloxy)phenyl)thieno[3,2-b]pyridin-2-yl)methyl)-5,5-dimethylimidazolidine-2,4-dione] | < 1
24 | CCC(O)c1cc2nccc(-c3cc(Cl)cc(C)c3O[C@H]3CCCN(C)C3)c2s1 (stereo partly drawn) [Example 186, 1-(7-(5-Chloro-3-methyl-2-(((S)-1-methylpiperidin-3-yl)oxy)phenyl)thieno[3,2-b]pyridin-2-yl)propan-1-ol] | 10 to 30
25 | Cc1cc(Cl)cc(-c2ccnc3ccsc23)c1OC1CCN(C)CC1 [Example 187, 7-(5-Chloro-3-methyl-2-((1-methylpiperidin-4-yl)oxy)phenyl)thieno[3,2-b]pyridine] | 10 to 30
26 | CCC(O)c1cc2nccc(-c3cc(Cl)cc(C)c3OC3CCN(C)CC3)c2s1 (stereo not shown) [Example 188, 1-(7-(5-Chloro-3-methyl-2-((1-methylpiperidin-4-yl)oxy)phenyl)thieno[3,2-b]pyridin-2-yl)propan-1-ol] | 1 to 10
27 | Cc1cc(Cl)cc(-c2ccnc3cc(CO)sc23)c1OCC1CCCNC1 (stereo not shown) [Example 189, (7-(5-Chloro-3-methyl-2-(piperidin-3-ylmethoxy)phenyl)thieno[3,2-b]pyridin-2-yl)methanol] | 10 to 30
28 | Cc1cc(Cl)cc(-c2ccnc3cc(CO)sc23)c1OC1C[C@@H]2C[C@H](C1)N2 (stereo partly drawn) [Example 190, (7-(2-(((1R,5S)-6-Azabicyclo[3.1.1]heptan-3-yl)oxy)-5-chloro-3-methylphenyl)thieno[3,2-b]pyridin-2-yl)methanol] | 10 to 30
29 | Cc1cc(Cl)cc(-c2ccnc3cc(CO)sc23)c1O[C@@H]1CNC[C@@H]1N=[N+]=[N-] [Example 191, (7-(2-(((3R,4S)-4-Azidopyrrolidin-3-yl)oxy)-5-chloro-3-methylphenyl)thieno[3,2-b]pyridin-2-yl)methanol] | 1 to 10
30 | Cc1cc(Cl)cc(-c2ccnc3cc(CO)sc23)c1O[C@@H]1C[C@H]2CC[C@@H](C1)N2 [Example 192, (7-(2-(((1R,3S,5S)-8-Azabicyclo[3.2.1]octan-3-yl)oxy)-5-chloro-3-methylphenyl)thieno[3,2-b]pyridin-2-yl)methanol] | 1 to 10
31 | Cc1cc(Cl)cc(-c2ccnc3cc(CO)sc23)c1O[C@H]1C[C@H]2CC[C@@H](C1)N2 [Example 193, (7-(2-(((1R,3r,5S)-8-Azabicyclo[3.2.1]octan-3-yl)oxy)-5-chloro-3-methylphenyl)thieno[3,2-b]pyridin-2-yl)methanol] | 1 to 10
32 | Cc1cc(Cl)cc(-c2ccnc3cc(CN4C(=O)CCC4=O)sc23)c1OC1CCN(CC(F)(F)F)CC1 [Example 194, 1-((7-(5-Chloro-3-methyl-2-((1-(2,2,2-trifluoroethyl)piperidin-4-yl)oxy)phenyl)thieno[3,2-b]pyridin-2-yl)methyl)pyrrolidine-2,5-dione] | 1 to 10
33 | Cc1cc(Cl)cc(-c2ccnc3cc(Cn4c(=O)ccn(C)c4=O)sc23)c1OC1CCNCC1 [Example 195, 3-((7-(5-Chloro-3-methyl-2-(piperidin-4-yloxy)phenyl)thieno[3,2-b]pyridin-2-yl)methyl)-1-methylpyrimidine-2,4(1H,3H)-dione] | < 1
34 | Cc1cc(Cl)cc(-c2ccnc3cc(CO)sc23)c1O[C@@H]1CCCC[C@@H]1N [Example 196, (7-(2-(((1R,2S)-2-Aminocyclohexyl)oxy)-5-chloro-3-methylphenyl)thieno[3,2-b]pyridin-2-yl)methanol] | > 30
